Reference: patent US20110038867A1, “REMEDIES FOR PEMPHIGUS CONTAINING ANTI FAS LIGAND ANTIBODIES” (priority 2007, published 2011)
Peptide text beside a SMILES is read from it. * marks the point of attachment. Cbz = O=C(OCc1ccccc1)*; CH2F = FC*

B1: FasL: recombinant Fas ligand added to keratinocyte cultures (protein, UniProt P48023 130-281, looked up)
Tumor necrosis factor ligand …: QIGHPSPPPEKKELRKVAHLTGKSNSRSMPLEWEDTYGIVLLSGVKYKKGGLVINETGLYFVYSKVYFRGQSCNNLPLSHKVYMRNSKYPQDLVMMEGKMMSYCTTGQMWARSSYLGAVFNLTSADHLYVNVSELSLVNFEESQTFFGLYKL

Key:
human keratinocytes = test: Pemphigus sera-induced keratinocyte apoptosis, TUNEL staining; type: cell-based; details: sera pretreated with anti-FasL neutralizing antibody (2.5 mg per ml for 30 min) or Z-IETD-FMK (100 μM for 30 min); FIG. 6
Protocol: As apoptotic keratinocytes are abundantly expressed in pemphigus, we wanted to explore whether pemphigus sera are capable of inducing apoptosis in normal human keratinocytes. To this purpose, keratinocytes were plated in chamber slides and cultured in serum-free medium (KGM) up to preconfluence. Cells were then cultured in keratinocyte basal medium and treated for 48 h with the addition of 25% serum from either untreated patients or patients treated with systemic corticosteroids. Sera from healthy subjects were used as controls. Apoptosis was evaluated by TUNEL staining in situ. Approximately 100 cells were evaluated, in randomly selected fields, and the percentage of TUNEL-positive cells was counted.
FasL is one of the major triggers of the caspase-8 activated extrinsic apoptotic pathway. Therefore, we wanted to evaluate whether this pathway plays a role in pemphigus apoptosis. To this purpose, patient sera were pretreated with anti-FasL neutralizing antibody or caspase-8 inhibitor, and added to keratinocyte cultures. Keratinocytes were cultured in KGM and treated with pemphigus sera or with sera from untreated patients. Sera were pretreated with anti-FasL neutralizing antibody (2.5 mg per ml for 30 min) or caspase-8 inhibitor Z-IETD-FMK (100 μM for 30 min). Apoptosis was evaluated by TUNEL staining.

keratinocytes [1] = test: Pemphigus sera-induced Dsg3 cleavage and caspase-8 activation in confluent keratinocytes, Western blotting; type: cell-based, human; details: pretreatment with Z-IETD-FMK (100 μM for 30 min) or NOK2 15 μg/ml, then sera 72 hrs; FIG. 12A
Protocol: To investigate whether the extrinsic apoptotic pathway is responsible for dsg cleavage, we pretreated confluent keratinocytes with caspase-8 inhibitor Z-IETD-FMK (100 μM for 30 min) or with anti-FasL (NOK2, 15 μg/ml) Ab. Then cells were incubated for 72 hrs with healthy or untreated pemphigus sera. Protein extracts from the culture were analyzed by Western blotting using anti-Dsg3 antibodies and anti-caspase-8 Ab. Vinculin was used as internal control. (FIG. 12A).

keratinocytes [2] = test: Pemphigus sera-induced cell detachment (acantholysis) of confluent keratinocytes; type: cell-based, human; details: pretreatment with Z-IETD-FMK (100 μM for 30 min) or NOK2 15 μg/ml, then sera 72 hrs; FIG. 12B
keratinocytes [3] = test: Treatment of keratinocytes with increasing amounts of FasL, Western blotting with anti-Dsg1 and anti-Dsg3; type: cell-based, human; details: FasL 0.1, 10, 100 ng/ml for 72 hrs; FIG. 9
Protocol: Protein extracts from the culture were analyzed by Western blotting using anti-Dsg1 and anti-Dsg3 antibodies. β-actin was used as internal control. These doses are consistent with the ones detected in pemphigus sera (FIG. 9).

Molecule	pemphigus sera-induced keratinocyte apoptosis (TUNEL staining) (human keratinocytes)	caspase-8 activation by untreated pemphigus sera (keratinocytes [1])	dsg cleavage by untreated pemphigus sera (keratinocytes [1])	cell detachment (i.e. acantholysis) by untreated pemphigus sera (keratinocytes [2])	cleavage of dsgs (Dsg1, Dsg3) by FasL (keratinocytes [3])
CC[C@H](C)[C@H](NC(=O)OCc1ccccc1)C(=O)N[C@@H](CCC(=O)OC)C(=O)N[C@H](C(=O)N[C@@H](CC(=O)OC)C(=O)CF)[C@@H](C)O [Z-IETD-FMK] (Cbz-IE(OMe)TD(OMe)-CH2F)	partially prevented	prevents both caspase-8 activation and dsg cleavage	prevents both caspase-8 activation and dsg cleavage	prevented	
B1					cleaved dsgs in a dose-dependent manner
